This note sets out measurements from US20200330447A1, “CANCER TREATMENT VIA REPOSITIONED TRICYCLIC ANTI-DEPRESSANT-LIKE DRUGS AS ANTI-CANCER AGENTS AND NEW COMBINATIONS OF SUCH DRUGS” (Board of Supervisors of Louisiana State University and …, priority 2015, published 2020).

Type in all cases: cell-based
Assay [1] relates to DU145 prostate cancer cells. Kind of assay: High content imaging-based screen (Cellomics) for lysosome migration inhibitors. As to conditions: pH 6.4 media, 2 micrograms per ml, 16 hours. How it is done: DEVELOPMENT OF A HIGH CONTENT IMAGING-BASED SCREEN: The followings process was followed to identify chemicals that were lysosome migration inhibitors. DU145 prostate cancer cells were seeded in 96 well flat bottom black walled plates at 4,500 cells per well. All compounds and controls were exposed to RPMI bicarbonate buffered media (pH 6.4). RPMI buffered media titrated at pH of 6.4-6.8 was added to column 12 after the media was removed and serves as negative control (low acidic pH so lysosomes move out). […] The 4 compound libraries chosen to screen were the NIH Clinical Collection (450 drugs), Prestwick (1200 drugs), Prestwick phytochemical and the Green Pharma collection (xx drugs). Compounds were diluted with buffered RPMI media to 2 micrograms per ml concentrations. Individual compounds to be screened were added robotically as a single compound per well through columns 2-11. Plates were incubated at 37 degrees in 5% CO2 for 16 hours then the medium was removed and the cells were fixed with 4% cold paraformaldehyde (Sigma-Aldrich) for 20 minutes at 4 degrees. Fixed cells were washed once with PBS. To stain lysosomes, cells were incubated for 1 hour with LAMP1 antibody (H4A3) diluted in BSP (containing 0.25% BSA and 0.1% saponin in PBS) at 1/200. Cells were then washed with PBS 3 times then incubated for 1 hour with Dylight Donkey anti-mouse diluted at 1/200 in BSP. To stain the nucleus, cells were then washed with PBS 3 times and incubated for 20 minutes with 1×DAPI diluted in PBS. DAPI was washed off with PBS and cells were maintained in PBS for the duration of the screening process. Plates were mounted and read in a Cellomics Arrayscan automated fluorescence imager. The Cellomics platform allows for high content throughput screening by combining fluorescence microscopy with a multi-parameter image analysis. Cells were photographed using 20× objective in 2 fluorescent channels. A total of 15 different fields in each well, and at least 300 cells were imaged per well. The biocompartmental analysis algorithm was used to identify each cell by its nucleus (channel 1 recognized by the DAPI stain) and to generate a cytoplasmic mask (ring) of 12 pixels width in which the inner ring was 6 pixels away from the nucleus. The algorithm calculates the number of lysosomes inside the ring as indicated by fluorescent LAMP-1 positive puncta in channel 2 as a mean ring spot count. Therefore, when lysosomes move away from the nucleus and disperse throughout the cytoplasm, the number of spots representing lysosomes inside the cytoplasmic ring increases (low pH conditions). By contrast, lysosomes cluster near the nucleus the numbers of spot inside the cytoplasmic ring decreases (EIPA treated).
Z′-factor is a simple statistical coefficient used to assess performance and quality of the assay in high-throughput screening. It is calculated with the formula: Z′=1-(3σct+3σcb)/|μct−μcb|, where p indicates mean, a represents standard deviation, “ct” indicates the positive control, “cb” indicates the negative control. […] If the Z′ is more than 0.5, the assay is considered to be high quality assay.
The Z′ factor of the assay was determined from the EIPA (positive control) and low pH (negative control). Experiments were run in duplicate. Only plates with positive Z′ factor was used for analysis.

Assay [2] deals with U373 glioma cell lines. Kind of assay: Lysosome outward movement in U373 cells. As to conditions: method of FIG. 2. How it is done:
A172 glioblastoma cells were treated overnight with 5 or 10 μM deptropine or pizotifen or with the deptropine or pizotifen in combination at 5 μM concentration. The next day, media was change to low pHe media containing deptropine or pizotifen and the cells were incubated for an additional 2 h. EIPA is a known inhibitor of lysosomal outward movement and represents the positive control. At the end of the incubation time, cells were fixed and stained for LAMP-1, filamentous actin and nuclei. Representative merged IF images depicting the effect of pHe 7.4, pHe 6.4, DMSO or deptropine and pizotifen on the distribution of lysosomes in A172 glioblastoma cells. On color versions of the Figure, red puncta are lysosomes, blue is nuclei and green is actin. As could be seen, lysosomes appear more peripherally distributed in A172 glioma cells than in cells treated with concentrations of 5 to 10 micromolar deptropine or pizotifen.
In an additional experiment, following the method whose results are shown in FIG. 2 above but with different cells, the broad range and general effectiveness of deptropine and pizotifen is shown beyond just in A172 glioblastoma cells. Specifically, deptropine and pizotifen were applied to U373 glioma cell lines instead of A172 glioblastoma cells.

Assay [3] deals with Erk signaling pathway. Nature of the assay: Lysosome inward movement in the presence of the MAPK inhibitor U0126, and Erk western blot. As to conditions: A172 cells, results not shown. How it is done:
Turning to FIG. 8, deptropine and pizotifen are shown to act through the Erk signaling pathway. In this experiment, A172 cells were treated with deptropine and pizotifen at 5 μM concentrations for 4 hours in the presence of the MAPK inhibitor U0126. I.F. microscopy was then performed. This helped allow the determination of the mechanism of action of deptropine and pizotifen.
In general terms: In western blotting, separated proteins are transferred to a membrane and probed.

Turning to `CN1[C@@H]2CC[C@H]1C[C@@H](OC1c3ccccc3CCc3ccccc31)C2` [deptropine, 3a-[(10, 11-dihydro-5H-dibenzo[a,d]cyclohepten-5-yl)oxy]1aH,5aH-tropane], the “hit in screen for lysosome migration inhibitors (mean ring spot count)” value in assay [1] is reported as “hits”. Besides, the lysosome outward movement entry in assay [2] is on record as “block lysosome outward movement”. Moreover, the “Erk signaling pathway, western blot” value in assay [3] is listed as “activate the Erk signaling pathway”.

Turning to `CN1CCC(=C2c3ccccc3CCc3sccc32)CC1` [pizotifen, 4-(1-methyl-4-piperidylidine)-9,10-dihydro-4H-benzo-[4,5]cyclohepta[1,2]-thiophene], the “hit in screen for lysosome migration inhibitors (mean ring spot count)” value in assay [1] is reported as “hits”. Besides, the lysosome outward movement entry in assay [2] is given as “block lysosome outward movement”. Further, the “Erk signaling pathway, western blot” value in assay [3] was “activate the Erk signaling pathway”.
